Results published in US20020082263A1, “Heterocycle derivatives as PPAR-gamma agonists” (priority 2000, published 2002).
Values belong to the compound of their own block, whether it stands above or below them.

What was measured:
PPAR-gamma = target: T1, PPAR-gamma (Homo sapiens, UniProt P37231); experiment: Reporter gene assay in transfected HepG2 cells: transcriptional activation of a PPRE via a PPAR-gamma mediated pathway; type: cell-based; details: transfected human hepatoma (HepG2) cells, 36-48 h exposure, reporter gene activity
T1 construct: host or cells: HepG2 (human hepatoma), transfected
T1 sequence (P37231 1-505): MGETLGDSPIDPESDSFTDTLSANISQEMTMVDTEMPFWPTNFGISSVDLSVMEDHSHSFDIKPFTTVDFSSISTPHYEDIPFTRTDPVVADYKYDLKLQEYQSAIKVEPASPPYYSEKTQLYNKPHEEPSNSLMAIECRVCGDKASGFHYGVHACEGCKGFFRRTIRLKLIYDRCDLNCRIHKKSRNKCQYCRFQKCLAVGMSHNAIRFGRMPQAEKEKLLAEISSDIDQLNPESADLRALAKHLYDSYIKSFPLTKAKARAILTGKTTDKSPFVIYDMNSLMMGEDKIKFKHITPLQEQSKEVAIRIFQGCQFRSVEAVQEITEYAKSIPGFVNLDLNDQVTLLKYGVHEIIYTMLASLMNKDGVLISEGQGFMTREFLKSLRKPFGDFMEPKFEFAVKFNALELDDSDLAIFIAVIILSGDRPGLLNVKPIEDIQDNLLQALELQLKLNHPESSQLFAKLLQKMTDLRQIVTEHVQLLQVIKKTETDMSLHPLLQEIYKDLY
Procedure: A reporter gene assay utilizing transfected human hepatoma (HepG2) cells is used to screen for compounds that transcriptionally activate a PPRE via a PPAR-gamma mediated pathway. Cells are exposed to experimental compounds dissolved in DMSO for 36-48 h prior to determination of reporter gene activity. 15dPGJ2 (2 μM) is used as positive control and vehicle (DMSO) is used as a negative control.

[1] = tested on: db/db mice (C578BL/KsJ-db/db Jcl); experiment: Effect on serum glucose and serum insulin in db/db mice; type: in vivo, mouse; details: oral; for Serum Glucose (% reduction) / Serum Insulin (% reduction): blood 1.5 h after last dose vs pretreatment blood, mean ± SEM
Procedure: Compounds prepared in accordance with Examples 8 and 36 were evaluated for their effect on serum glucose and serum insulin in db/db mice (C578BL/KsJ-db/db Jcl). The compounds were dissolved in a vehicle consisting of 2% Tween80 in distilled water and administered orally. Dosage volume was 10 ml/kg body weight. All aspects of the work including experimentation and disposal of the animals was performed in general accordance with the International Guiding Principles for Biomedical Research Involving Animals (CIOMS Publication No. ISBN 92 90360194, 1985). Glucose-HA Assay kits (Wako, Japan) were used for determination of serum glucose and ELISA Mouse Insulin Assay kits (SPI bio, France) were utilized for determination of insulin. The positive control was troglitazone (Helios Pharmaceutical, Louisville, Ky.).
The animals were divided into twenty groups of four animals each. The animals weighed 52±5 gms at age 8-10 weeks. During the experiment the animals were provided free access to laboratory chow (Fwusow Industry Co., Taiwan) and water
Prior to any treatment a blood sample (pretreatment blood) was taken from each animal. Four groups of animals, the vehicle groups, received only doses of the vehicle. Each of the vehicle groups received of 100, 30, 10 or 1 ml/kg body weight of the vehicle orally. […] The compound of Example 8 was administered orally as a solution (10 ml/kg body weight in tween 80/water) to four groups of animals with each group receiving a different dose of the compound. The dosage rates were […] body weight with only one dosage rate administered to each group. […] The vehicle, positive control and test compound solutions were administered to the groups immediately, 24 hours and 48 hours after drawing the pretreatment blood. Blood was withdrawn (post treatment blood) 1.5 hours after administration of the last dose.
The serum glucose levels of the blood samples was determined enzymatically (Mutaratose-GOD) and the insulin levels by ELISA (mouse insulin assay kit). The mean ±SEM of each group was calculated and the percent inhibition of serum glucose and insulin was obtained by comparison between pretreatment blood and post treatment blood. The percentage of reduction of the serum glucose and insulin levels in the post treatment blood relative to the pretreatment blood was determined and the Unpaired students t test was applied for the comparison between the control and test solution groups and the vehicle group. A significant difference was considered at P<0.05.

[2] = 100 mg/kg body weight, P<0.01, unpaired t test

EC50 (PPAR-gamma): 2350 nM
Compound: CCCC[C@H]1C(=O)N(Cc2cc(OC)cc(OC)c2)CC(CC(=O)NC)N1C(=O)NC1CCCCC1 (stereo partly drawn) [Example 41, N-Methyl[1-cyclohexylcarbamoyl-4-(3,5-dimethoxybenzyl)-6-(S)-butyl-5-oxo-piperazin-2-yl]-acetamide]

EC50 (PPAR-gamma): > 1000 nM
Compound: COc1cc(CN2CC(CC(=O)NCCO)N(C(=O)NC3CCCCC3)[C@@H](CC(C)C)C2=O)cc(OC)c1 (stereo partly drawn) [Example 43, N-(2-Hydroxyethyl)[1-cyclohexylcarbamoyl-4-(3,5-dimethoxybenzyl)-6-(S)-isobutyl-5-oxo-piperazin-2-yl]-acetamide]

EC50 (PPAR-gamma): 120 nM
Compound: CCCCNC(=O)CC1CN(Cc2cc(OC)cc(OC)c2)C(=O)[C@H](CC(C)C)N1C(=O)NC1CCCCC1 (stereo partly drawn) [Example 35, N-Butyl[1-cyclohexylcarbamoyl-4-(3 ,5-dimethoxybenzyl)-6-(S)-isobutyl-5-oxo-piperazin-2-yl]-acetamide]

EC50 (PPAR-gamma): 250 nM
Compound: CCNC(=O)CC1CN(Cc2cc(OC)cc(OC)c2)C(=O)[C@H](CC(C)C)N1C(=O)NC1CCCCC1 (stereo partly drawn) [Example 42, N-Ethyl[1-cyclohexylcarbamoyl-4-(3,5-dimethoxybenzyl)-6-(S)-isobutyl-5-oxo-piperazin-2-yl]-acetamide]

EC50 (PPAR-gamma): 620 nM
Compound: CNC(=O)CC1CN(Cc2cc(OC)cc(OC)c2)C(=O)[C@H](CC(C)C)N1C(=O)NC1CCCCC1 (stereo partly drawn) [Example 32, N-Methyl[1-cyclohexylcarbamoyl-4-(3,5-dimethoxybenzyl)-6-(S)-isobutyl-5-oxo-piperazin-2-yl]-acetamide]

Compound: COc1cc(CN2C[C@@H](CC(=O)NCC3CCCO3)N(C(=O)NC3CCCCC3)[C@@H](CC(C)C)C2=O)cc(OC)c1 (stereo partly drawn) [Example 8, N-Tetrahydrofurfuryl (R)-[1-cyclohexylcarbamoyl-4-(3,5-dimethoxybenzyl)-6-(S)-isobutyl-5-oxo-piperazin-2-yl]-acetamide]
Serum Glucose (% reduction) ([1]; 1 mg/kg at 0, 24 and 48 h): 9 ± 8%
Serum Insulin (% reduction) ([1]; 1 mg/kg at 0, 24 and 48 h): 3 ± 7%
Serum Glucose (% reduction) ([1]; 3 mg/kg at 0, 24 and 48 h): −1 ± 3%
Serum Insulin (% reduction) ([1]; 3 mg/kg at 0, 24 and 48 h): −7 ± 3%
Serum Glucose (% reduction) ([1]; 10 mg/kg at 0, 24 and 48 h): 18 ± 6%
Serum Insulin (% reduction) ([1]; 10 mg/kg at 0, 24 and 48 h): 1 ± 4%
Serum Glucose (% reduction) ([1]; 30 mg/kg at 0, 24 and 48 h): 14 ± 2%
Serum Insulin (% reduction) ([1]; 30 mg/kg at 0, 24 and 48 h): 5 ± 4%
Serum Glucose (% reduction) ([1]; 100 mg/kg at 0, 24 and 48 h): 41 ± 6%
Serum Insulin (% reduction) ([1]; 100 mg/kg at 0, 24 and 48 h): 6 ± 2.5%
reduction of serum glucose relative to the vehicle treated groups (in words) [1, 2]: significant reduction

Compound: Cc1c(C)c2c(c(C)c1O)CCC(C)(COc1ccc(CC3SC(=O)NC3=O)cc1)O2 (centres unmarked) [troglitazone, reference compound]
Serum Glucose (% reduction) ([1]; 10 mg/kg at 0, 24 and 48 h): 25±2%

Compound: CCCCNC(=O)C[C@@H]1CN(Cc2cc(OC)cc(OC)c2)C(=O)[C@H](CC(C)C)N1C(=O)NC1CCCCC1 [Example 36, N-Butyl (R)-[1-cyclohexylcarbamoyl-4-(3 5-dimethoxybenzyl)-6-(S)-isobutyl-5-oxo-piperazin-2-yl]-acetamide]
Serum Glucose (% reduction) ([1]; 1 mg/kg at 0, 24 and 48 h): −1 ± 2%
Serum Insulin (% reduction) ([1]; 1 mg/kg at 0, 24 and 48 h): 8 ± 7%
Serum Glucose (% reduction) ([1]; 3 mg/kg at 0, 24 and 48 h): 0 ± 2%
Serum Insulin (% reduction) ([1]; 3 mg/kg at 0, 24 and 48 h): −9 ± 2%
Serum Glucose (% reduction) ([1]; 10 mg/kg at 0, 24 and 48 h): −4 ± 7%
Serum Insulin (% reduction) ([1]; 10 mg/kg at 0, 24 and 48 h): −9 ± 6%
Serum Glucose (% reduction) ([1]; 30 mg/kg at 0, 24 and 48 h): 37 ± 8%
Serum Insulin (% reduction) ([1]; 30 mg/kg at 0, 24 and 48 h): 1 ± 2%
reduction of serum glucose relative to the vehicle treated groups (in words) ([1]; 30 mg/kg body weight, P<0.05, unpaired t test): significant reduction
Serum Glucose (% reduction) ([1]; 100 mg/kg at 0, 24 and 48 h): 40 ± 7%
Serum Insulin (% reduction) ([1]; 100 mg/kg at 0, 24 and 48 h): 2 ± 4%
reduction of serum glucose relative to the vehicle treated groups (in words) [1, 2]: significant reduction
